The values below come from patent publication US6670363B1, “Azole compounds as therapeutic agents for fungal infections” (Ranbaxy Laboratories Limited, priority 2000, dated 2003).

One series deals with Histoplasma capsulatum. The class given is cell-based.
For a further series, the system named is Candida. Description: In vitro MIC, NCCLS M27A, Candida species. It counts as cell-based. Also on record: MIC, Candida albicans 1.549 / MIC, Candida albicans Y-01-19 / MIC, C. krusei 766-1 / MIC, C. krusei Q. C / MIC, Candida tropicalis ATCC / MIC, C. glabrata 90030: unit not given beside the values; MIC, Candida albicans A 26 / MIC, C. parapsilosis Q. C.: unit not given here. As to conditions: for MIC, C. glabrata 90030: C. glabrata strain 90030; for MIC, C. krusei 766-1: C. krusei strain 766-1; for MIC, C. krusei Q. C: C. krusei strain Q. C; for MIC, C. parapsilosis Q. C.: C. parapsilosis strain Q. C.; for MIC, Candida albicans 1.549: Candida albicans strain 1.549; for MIC, Candida albicans A 26: Candida albicans strain A 26; for MIC, Candida albicans Y-01-19: Candida albicans strain Y-01-19.

For another series, the system named is A. fumigatus s 1008. Description: In vitro MIC, NCCLS M38P broth method (RPMI 1640/MOPS pH7), Aspergillus fumigatus. The class given is cell-based. The following applies: A. fumigatus strain 1008.
A further series deals with Cryptococcus neoformans. Description: In vitro MIC, NCCLS M27A, Cryptococcus neoformans. On the set-up: MIC, C. neoformans I: unit not given beside the values; MIC, C. neoformans M 106: unit not given here. As to conditions: for MIC, C. neoformans I: C. neoformans strain I; for MIC, C. neoformans M 106: C. neoformans strain M 106. It counts as cell-based.
For series [1], the system named is isolates of Aspergillus species. As to conditions: cited from earlier work.
Series [2] concerns the target lanosterol 14α—demethylase. As to conditions: target enzyme in the fungus; read-out: IC50 against lanosterol 14α-demethylase; cited from earlier work.

≈ marks a conversion by molar mass, not a printed value.

The term melting point denotes the temperature, or range, at which the solid turns liquid. Consider `Cc1ccc(N2CCN(c3ccc(-n4cnn(CC(O)(Cn5cncn5)c5ccc(F)cc5F)c4=O)cc3)CC2)c(C)c1` (stereo not shown) [Compound 54, 2-[2-(2,4-Difluorophenyl)-2-hydroxy-3-(1H-1,2,4-triazol-1-yl)propyl]-4-{4-[4-(2,4-dimethylphenyl)-1-piperazinyl]phenyl}-3-(2H,4H)-1,2,4-triazolone], for which the melting point is 76 to 77 °C. The MIC, H. capsulatum with Histoplasma capsulatum was found to be 0.06 µg/mL (≈ 0.102 µM). Moreover, in the series with Candida, the “MIC, C. glabrata 90030” value is recorded as 1.00; the “MIC, C. krusei 766-1” value was 0.50; the “MIC, C. krusei Q. C” value is 0.12; the “MIC, C. parapsilosis Q. C.” value is given as less than 0.03. For the same compound, in the series with Candida, the “MIC, Candida albicans 1.549” value turned out to be 8.00; the “MIC, Candida albicans A 26” value is reported as less than 0.03; the “MIC, Candida albicans Y-01-19” value was found to be 0.12; the “MIC, Candida tropicalis ATCC” value is reported as less than 0.03. Further, the “MIC, A. fumigatus 1008” value against A. fumigatus s 1008 is recorded as 2.00. In the series on Cryptococcus neoformans, the “MIC, C. neoformans I” value is less than 0.03 and the “MIC, C. neoformans M 106” value is recorded as less than 0.03.
Take `O=c1n(-c2ccc(N3CCN(c4ccc(F)c(F)c4)CC3)cc2)cnn1CC(O)(Cn1cncn1)c1ccc(F)cc1F` (stereo not shown) [Compound 55, 2-[2-(2,4-Difluorophenyl)-2-hydroxy-3-(1H-1,2,4-triazol-1-yl)propyl]-4-{4-[4-(3,4-difluorophenyl)-1-piperazinyl]phenyl}-3-(2H,4H)-1,2,4-triazolone]: the melting point is 117 to 118 °C. Besides, the MIC, H. capsulatum in the series with Histoplasma capsulatum turned out to be 0.004 µg/mL (≈ 0.00673 µM). Besides, in the series with Candida, the “MIC, C. glabrata 90030” value was 0.25; the “MIC, C. krusei 766-1” value was 1.00; the “MIC, C. krusei Q. C” value came out at 0.12; the “MIC, C. parapsilosis Q. C.” value is less than 0.03. In addition, in the series on Candida, the “MIC, Candida albicans 1.549” value is listed as 0.03; the “MIC, Candida albicans A 26” value is less than 0.03; the “MIC, Candida albicans Y-01-19” value is recorded as 0.03; the “MIC, Candida tropicalis ATCC” value was less than 0.03. Further, the “MIC, A. fumigatus 1008” value with A. fumigatus s 1008 is listed as more than 16. For the same compound, in the series on Cryptococcus neoformans, the “MIC, C. neoformans I” value is given as less than 0.03 and the “MIC, C. neoformans M 106” value was determined as 0.02.
For `Cc1ccc(N2CCN(c3ccc(-n4cnn(CC(O)(Cn5cncn5)c5ccc(F)cc5F)c4=O)cc3)CC2)cc1C` (stereo not shown) [Compound 56, 2-[2-(2,4-Difluorophenyl)-2-hydroxy-3-(1H-1,2,4-triazol-1-yl)propyl]-4-{4-[4-(3,4-dimethylphenyl)-1-piperazinyl]phenyl}-3-(2H,4H)-1,2,4-triazolone], the melting point was in the range of 136 to 137 °C. This compound registered an MIC, H. capsulatum in the series with Histoplasma capsulatum of 0.004 µg/mL (≈ 0.00682 µM). Further, in the series on Candida, the “MIC, C. glabrata 90030” value amounted to 0.25; the “MIC, C. krusei 766-1” value was 1.00; the “MIC, C. krusei Q. C” value is 0.25; the “MIC, C. parapsilosis Q. C.” value is less than 0.03. Moreover, in the series with Candida, the “MIC, Candida albicans 1.549” value is on record as 0.06; the “MIC, Candida albicans A 26” value is given as less than 0.03; the “MIC, Candida albicans Y-01-19” value was 0.03; the “MIC, Candida tropicalis ATCC” value is less than 0.03. In the series with A. fumigatus s 1008, the “MIC, A. fumigatus 1008” value is given as more than 16. In addition, in the series with Cryptococcus neoformans, the “MIC, C. neoformans I” value is less than 0.03 and the “MIC, C. neoformans M 106” value stood at 0.03.
Consider `O=c1n(-c2ccc(N3CCN(c4cccc(Cl)c4)CC3)cc2)cnn1CC(O)(Cn1cncn1)c1ccc(F)cc1F` (stereo not shown) [Compound 57, 2-[2-(2,4-Difluorophenyl)-2-hydroxy-3-(1H-1,2,4-triazol-1-yl)propyl]-4-{4-[4-(3-chlorophenyl)-1-piperazinyl]phenyl}-3-(2H,4H)-1,2,4-triazolone], for which the melting point is 177 to 178 °C. In the series on Histoplasma capsulatum, this compound registered an MIC, H. capsulatum of 0.06 µg/mL (≈ 0.101 µM). In the series with Candida, the “MIC, C. glabrata 90030” value stood at 0.25; the “MIC, C. krusei 766-1” value is 0.50; the “MIC, C. krusei Q. C” value was determined as 0.25; the “MIC, C. parapsilosis Q. C.” value is reported as less than 0.03. Moreover, in the series with Candida, the “MIC, Candida albicans 1.549” value worked out at 0.25; the “MIC, Candida albicans A 26” value is reported as less than 0.03; the “MIC, Candida albicans Y-01-19” value was 0.12; the “MIC, Candida tropicalis ATCC” value is less than 0.03. Besides, in the series with A. fumigatus s 1008, the “MIC, A. fumigatus 1008” value is more than 16. In the series with Cryptococcus neoformans, the “MIC, C. neoformans I” value is less than 0.03 and the “MIC, C. neoformans M 106” value is recorded as less than 0.03.
Compound `CCc1ccccc1N1CCN(c2ccc(-n3cnn(CC(O)(Cn4cncn4)c4ccc(F)cc4F)c3=O)cc2)CC1` (stereo not shown) [Compound 60, 2-[2-(2,4-Difluorophenyl)-2-hydroxy-3-(1H-1,2,4-triazol-1-yl)propyl]-4-{4-[4-(2-ethylphenyl)-1-piperazinyl]phenyl}-3-(2H,4H)-1,2,4-triazolone] registered a melting point of 148 to 150 °C. The compound also returned an MIC, H. capsulatum against Histoplasma capsulatum of less than 0.03 µg/mL. Further, in the series on Candida, the “MIC, C. glabrata 90030” value is 0.50; the “MIC, C. krusei 766-1” value is given as 1.00; the “MIC, C. krusei Q. C” value was 0.25; the “MIC, C. parapsilosis Q. C.” value was less than 0.03. In the series on Candida, the “MIC, Candida albicans 1.549” value is listed as more than 16; the “MIC, Candida albicans A 26” value was less than 0.03; the “MIC, Candida albicans Y-01-19” value is 0.25; the “MIC, Candida tropicalis ATCC” value is given as less than 0.03. Also, the “MIC, A. fumigatus 1008” value with A. fumigatus s 1008 is more than 16. In the series on Cryptococcus neoformans, the “MIC, C. neoformans I” value was less than 0.03 and the “MIC, C. neoformans M 106” value was less than 0.03.
In turn, `O=c1n(-c2ccc(N3CCN(c4cc(Cl)cc(Cl)c4)CC3)cc2)cnn1CC(O)(Cn1cncn1)c1ccc(F)cc1F` (stereo not shown) [Compound 61, 2-[2-(2,4-Difluorophenyl)-2-hydroxy-3-(1H-1,2,4-triazol-1-yl)propyl]-4-{4-[4-(3,5-dichlorophenyl)-1-piperazinyl]phenyl}-3-(2H,4H)-1,2,4-triazolone] came in with a melting point of 222 to 225 °C. In addition, in the series on Histoplasma capsulatum, the MIC, H. capsulatum was less than 0.03 µg/mL. In the series on Candida, the “MIC, C. glabrata 90030” value came to 0.50; the “MIC, C. krusei 766-1” value is given as 0.50; the “MIC, C. krusei Q. C” value was 0.25; the “MIC, C. parapsilosis Q. C.” value was less than 0.03. In the series with Candida, the “MIC, Candida albicans 1.549” value is on record as 0.25; the “MIC, Candida albicans A 26” value is less than 0.03; the “MIC, Candida albicans Y-01-19” value was determined as 0.12; the “MIC, Candida tropicalis ATCC” value is reported as less than 0.03. For the same compound, the “MIC, A. fumigatus 1008” value in the series with A. fumigatus s 1008 was more than 16. Besides, in the series on Cryptococcus neoformans, the “MIC, C. neoformans I” value is given as less than 0.03 and the “MIC, C. neoformans M 106” value is less than 0.03.
The compound `O=c1n(-c2ccc(N3CCN(c4ccccc4F)CC3)cc2)cnn1CC(O)(Cn1cncn1)c1ccc(F)cc1F` (stereo not shown) [Compound 62, 2-[2-(2,4-Difluorophenyl)-2-hydroxy-3-(1H-1,2,4-triazol-1-yl)propyl]-4-{4-[4-(2-fluorophenyl)-1-piperazinyl]phenyl}-3-(2H,4H)-1,2,4-triazolone] came in with a melting point of 74 to 76 °C. The compound further displayed an MIC, H. capsulatum against Histoplasma capsulatum of less than 0.03 µg/mL. In the series on Candida, the “MIC, C. glabrata 90030” value is on record as 1.00; the “MIC, C. krusei 766-1” value came to 2.00; the “MIC, C. krusei Q. C” value was found to be 0.50; the “MIC, C. parapsilosis Q. C.” value is less than 0.03. In the series with Candida, the “MIC, Candida albicans 1.549” value is given as 4.00; the “MIC, Candida albicans A 26” value is listed as less than 0.03; the “MIC, Candida albicans Y-01-19” value was found to be 0.50; the “MIC, Candida tropicalis ATCC” value is less than 0.03. Also, in the series with A. fumigatus s 1008, the “MIC, A. fumigatus 1008” value came out at 16.00. In the series with Cryptococcus neoformans, the “MIC, C. neoformans I” value was less than 0.03 and the “MIC, C. neoformans M 106” value is 0.12.
For the compound `O=c1n(-c2ccc(N3CCN(c4ccc(F)c(F)c4F)CC3)cc2)cnn1CC(O)(Cn1cncn1)c1ccc(F)cc1F` (stereo not shown) [Compound 63, 2-[2-(2,4-Difluorophenyl)-2-hydroxy-3-(1H-1,2,4-triazol-1-yl)propyl]-4-{4-[4-(2,3,4-trifluorophenyl)-1-piperazinyl]phenyl}-3-(2H,4H)-1,2,4-triazolone], the melting point lay in the range of 186 to 187 °C. For the same compound, the MIC, H. capsulatum in the series on Histoplasma capsulatum is less than 0.03 µg/mL. Further, in the series with Candida, the “MIC, C. glabrata 90030” value worked out at 0.50; the “MIC, C. krusei 766-1” value amounted to 8.00; the “MIC, C. krusei Q. C” value is 0.25; the “MIC, C. parapsilosis Q. C.” value was less than 0.03. In addition, in the series with Candida, the “MIC, Candida albicans 1.549” value is recorded as 0.06; the “MIC, Candida albicans A 26” value is listed as less than 0.03; the “MIC, Candida albicans Y-01-19” value came out at 0.12; the “MIC, Candida tropicalis ATCC” value is less than 0.03. Further, the “MIC, A. fumigatus 1008” value in the series on A. fumigatus s 1008 is recorded as more than 16. Besides, in the series on Cryptococcus neoformans, the “MIC, C. neoformans I” value is less than 0.03 and the “MIC, C. neoformans M 106” value is on record as less than 0.03.
Usually IC50 stands for the concentration needed to halve the response being measured. Regarding `OC(Cn1cncn1)(Cn1cncn1)c1ccc(F)cc1F` [fluconazole], the “minimum inhibitory concentration (MIC)” value in series [1] was 400 µg/mL (≈ 1310 µM). Also, the IC50 in series [2] was 4.8 µM.
